Results on 1 compound are retold here after patent publication US11530196B2, “Pyrimidine compound acting on EGFR and ERBB2” (CHINA RESOURCES PHARMACEUTICAL HOLDINGS COMPANY LIMITED, priority 2019, dated 2022).

Data set [1] can be described thus: Compound stability test in plasma (dog). The data set is classed as in vitro ADME, Beagle. As to the method: In this study, mouse, SD rat, Beagle, cynomolgus monkey and human plasma were used as materials to investigate the stability of the tested compounds in the plasma of the above five species. Propantheline, Enalapril, Bisacodyl and Procaine were used as control compounds.
The experimental conditions for the test compounds were as follows: • test concentration: 2 μM (DMSO ≤0.5%); • incubation times: 0, 10, 30, 60 and 120 minutes; • frozen plasma (from multiple species) was used in the test system; • incubation conditions: 37° C.
The mixed frozen plasma was thawed in a 37° C. water bath prior to the experiment. Plasma was centrifuged at 4000 rpm for 5 minutes and cleared if there was a clot. The pH will be adjusted to 7.4±0.1 if required.
The intermediate solution of 1 mM compound and positive control was prepared by diluting 10 mM stock solution with 90 μL of dimethyl sulfoxide. 100 μM solution was prepared by diluting 20 μL of intermediate solution (1 mM) with 180 μL of 45% methanol/water.
2 μL of 100 μM solution was added to 98 μL of blank plasma to achieve a final concentration of 2 μM (in duplicate) of the sample, and the sample was incubated in a 37° C. water bath. At each time point (0, 10, 30, 60 and 120 min), 400 μL of termination solution (200 ng/mL toluenesulfonylurea and 200 ng/mL labetalol, 50% ACN/MeOH) was added to precipitate the proteins and mixed thoroughly. […]

The target in data set [2] is EGFR L858R/T790M double mutant enzyme (Homo sapiens, UniProt P00533, L858R/T790M). Kind of data set: Kinase assay (HTRF KinEASE TK), EGFR L858R/T790M. The data set is classed as biochemical. From the text:
To detect the inhibitory effect of compounds on EGFR WT, EGFR (D770_N771insNPG), ERBB2 (V777_G778ins>CG), EGFR T790M/L858R enzyme activities
EGFR WT (Invitrogen, Cat. No. PR7295B), EGFR [L858R] (Invitrogen, Cat. No. PR7447A), EGFR [d746-750] (Invitrogen, Cat. No. PV6179), ATP (Sigma, Cat. No. A7699-1G), DMSO (Sigma, Cat. No. D2650), DTT (Sigma, Cat. No. 43815), 384-well plate, compound dilution plate (Greiner, Cat. No. 781280), 384-well plate, test plate (Perkin Elmer, Cat. No. 6007299), HTRF KinEASE TK Kit (Cisbio, Cat. No. 62TK0PEB), magnesium chloride (Sigma, Cat. No. M1028), Orthovanadate (Sigma, Cat. No. 56508), BSA (Sigma, Cat. No. A7030), HEPES (Life technology, Cat. No. 11344-041).
The final test concentrations of the test compounds ranged from 10 μM to 0.17 nM in 3-fold gradient dilutions at 11 concentrations.
The preparation of the buffer, 50 mM HEPES (pH 7.5), 0.01% BSA, 5 mM MgCl2, and 0.1 mM Orthovanadate were contained in the buffer. After the preparation of the buffer, the enzyme and substrate were mixed with pre-diluted prepared compounds of different concentrations, and the mixture was placed at room temperature for 15 minutes. […] After the reaction was completed, the antibody was added to the assay, incubated at room temperature for 60 minutes and then detected by Envision (plate reading instrument), and data were collected. […]

Data set [3] concerns H1975 (L858R/T790M) cells. Kind of data set: Anti-proliferation activity test against H1975 cells. The format is cell-based. The following applies: Homo sapiens, NCI-H1975, Cell-Titer Glo, 72 hours. As to the method: (2) Anti-Proliferation Activity Test of the Compound Against H1975 Cells and IC50 Test of Anti-Proliferation Activity Against A431 Cells
RPMI1640 medium, FBS fetal bovine serum, trypsin-EDTA, were all purchased from Giboco. DPBS was purchased from Corning, penicillin/streptomycin solution was purchased from Hyclone, and Cell-Titer Glo reagent was purchased from Promega (1kit, Cat. No. G7571). Plate reading instrument: Envision (PerkinElmer).
384-well plates in columns 1, 2, and 24 were added with 45 μL of medium, and the cell suspension was dispensed with Multi-drop at 45 μL per well (1000 cells) and incubated overnight in an incubator. The compound was added to the source plate according to the Echo dispensing requirements, the compound in the source plate was added to the inter plate and diluted to an intermediate concentration, then the compound in the source plate and the inter plate was added to the cell plate, and the cells were continued to be incubated in a incubator for 72 hours. After 72 hours, Cell-Titer Glo reagent and cells were removed and equilibrated at room temperature for 30 min. 25 μL of Cell-Titer Glo reagent was dispensed into 384-well plates with Multi-drop, the cell plate was vibrated at medium speed for 3 min, centrifuged at 1000 rpm for 2 min, and stood for 10 min. The plate was read by Envision (Luminescence). […]

Data set [4] can be described thus: Pharmacokinetic study, single intravenous and oral administration in mice. The data set is classed as in vivo. To be noted: mouse, plasma. As to the method:
The purpose of this experiment was to investigate the pharmacokinetics (PK) of the compounds in different species after single intravenous and single oral administration of the test compounds.
After intravenous or oral administration, blood samples were collected from the animals, and the actual time of blood collection was recorded. After the blood samples were collected, the samples were immediately transferred to the labelled centrifuge tube containing K2-EDTA, and then centrifuged to obtain plasma. Plasma was transferred to pre-cooled centrifuge tubes, quick-frozen in dry ice and stored in an ultra-low temperature refrigerator at −70±10° C. until LC-MS/MS analysis was performed.
The plasma drug concentration data of the compounds were processed using pharmacokinetic software with a non-compartmental model. The peak concentration (Cmax) and time to peak (Tmax), as well as the quantifiable end time were obtained directly from the plasma concentration-time curve. The following pharmacokinetic parameters were calculated using the log-linear trapezoidal method: half-life (T1/2), apparent volume of distribution (Vdss), and clearance (Cl), area under the time-plasma concentration curve from point 0 to the end time point (AUC0-last), and initial concentration (C0).

A value given as a limit tells only on which side of the number the result lay.

EGFR L858R/T790M double mutant enzyme, sequence (P00533 25-1210 T790M/L858R): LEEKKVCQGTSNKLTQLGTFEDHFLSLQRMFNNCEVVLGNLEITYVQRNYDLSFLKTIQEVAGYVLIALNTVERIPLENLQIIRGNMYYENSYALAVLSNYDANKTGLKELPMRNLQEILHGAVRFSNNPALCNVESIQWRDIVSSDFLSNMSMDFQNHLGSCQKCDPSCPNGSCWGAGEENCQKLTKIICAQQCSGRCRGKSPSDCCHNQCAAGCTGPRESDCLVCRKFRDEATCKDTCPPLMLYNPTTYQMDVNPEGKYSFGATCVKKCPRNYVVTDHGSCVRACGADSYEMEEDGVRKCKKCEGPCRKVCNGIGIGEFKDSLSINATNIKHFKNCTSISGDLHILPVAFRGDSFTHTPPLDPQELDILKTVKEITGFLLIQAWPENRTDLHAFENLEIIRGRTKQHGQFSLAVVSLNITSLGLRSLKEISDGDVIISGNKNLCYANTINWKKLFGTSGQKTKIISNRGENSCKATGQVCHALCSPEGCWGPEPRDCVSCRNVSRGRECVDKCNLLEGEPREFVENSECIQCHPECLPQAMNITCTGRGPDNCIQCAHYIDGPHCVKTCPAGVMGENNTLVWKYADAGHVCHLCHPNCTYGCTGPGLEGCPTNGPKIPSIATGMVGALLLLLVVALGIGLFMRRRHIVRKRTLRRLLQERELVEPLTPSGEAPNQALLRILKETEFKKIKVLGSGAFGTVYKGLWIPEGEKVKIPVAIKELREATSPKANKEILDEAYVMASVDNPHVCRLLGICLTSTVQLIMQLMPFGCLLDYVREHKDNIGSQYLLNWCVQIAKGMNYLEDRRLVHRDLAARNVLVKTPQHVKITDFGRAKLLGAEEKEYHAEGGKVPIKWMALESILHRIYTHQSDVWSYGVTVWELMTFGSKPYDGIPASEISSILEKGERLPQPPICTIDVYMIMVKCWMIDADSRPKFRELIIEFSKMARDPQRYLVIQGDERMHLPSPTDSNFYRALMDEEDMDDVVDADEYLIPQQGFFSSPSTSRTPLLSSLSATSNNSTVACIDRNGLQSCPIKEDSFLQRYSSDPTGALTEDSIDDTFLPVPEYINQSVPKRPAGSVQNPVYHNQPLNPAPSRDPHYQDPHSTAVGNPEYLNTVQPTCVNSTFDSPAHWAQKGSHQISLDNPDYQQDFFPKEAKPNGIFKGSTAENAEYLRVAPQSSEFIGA

With `C=CC(=O)Nc1cc(Nc2ncc(C(=O)OC(C)C)c(-c3cn(OC)c4ccccc34)n2)c(OC)cc1N(C)CCN(C)C.CS(=O)(=O)O` [Compound 1], the “In vitro plasma stability (Residual percentage)” value in data set [1] (120 minutes, 2 μM, 37° C.) is on record as 101.7%. Further, in data set [1] (beagle, pH 7.4, 37° C., read-out: In vitro plasma half-life T1/2), the half-life at 2 µM is over 4.82 h. It took 3.71 nM to reach half-maximal inhibition in data set [2] (IC50). Also, the concentration for half-maximal inhibition (IC50) in data set [3] was determined as 15.3 nM. Moreover, in data set [4] (intravenous injection 2 mg/kg), the clearance worked out at 57.7 mL/min/kg and the half-life was 1.76 h. The AUC in data set [4] (intravenous injection 2 mg/kg, read-out: Exposure of AUC) turned out to be 0.884 µM·h. The Vd in data set [4] (intravenous injection 2 mg/kg, read-out: Vdss) worked out at 6.95 L/kg. For the same compound, in data set [4] (oral 10 mg/kg), the maximum concentration (Cmax) was found to be 300 nM, the Tmax was 2 h and the bioavailability was 22.1%. Also, the AUC(0-t) in data set [4] (oral 10 mg/kg, read-out: Exposure of AUC0-last) stood at 1.42 µM·h.
